Consider 4 molecules from patent US5719135A, “Substituted 3-arylidene-7-azaoxindole compounds and process for their preparation” (Pharmacia S.p.A., priority 1994, dated 1998).

Structures are written as SMILES.

Test [1] addresses p45 v-abl tyrosine kinase. Put plainly: p45 v-abl Kinase Assay. It counts as biochemical, Abelson murine leukemia virus. The settings on record: in-vitro; (Val^5)-Angiotensin II peptide 2 mM, ATP 50 μM, pH 8.0, 30° C. As to the method:
p45 v-abl Kinase Purification
The enzyme used in our tests was the p45 v-abl tyrosine kinase which represents the catalytic domain of the Abelson tyrosine kinase (isolated form the Abelson murine leukemia virus). The p45 v-abl kinase was produced and isolated as described by Wang at al. in J. Biol. Chem. 260, 64 (1985) and by Ferguson et al. in J. Biol. Chem. 260, 3652 (1985) and in Biochem. J. 257, 321 (1989).
(Val^5)-Angiotensin II phosphorylation was performed by incubation with 40 ng of purified abl-kinase and (γ^32 -p)ATP, in 50 μl of buffer containing Tris-Hcl 25 mM, pH 8.0. MgCl2 10 mM and dithiothreitol 0.1 mM (kinase buffer). The reaction mixture was incubated for the indicated time at 30° C. and the reaction stopped by adding 50 μl of 5% trichloroacetic acid. After a brief incubation on ice, tubes were centrifuged. The supernatants were spotted on phosphocellulose paper squares (Whatman P-81) and washed extensively in acetic acid. The radioactivity bound to dried phosphocellulose squares was measured in a liquid scintillation counter. IC50 values were calculated from triplicated determinations of each experimental point. Each inhibitor was tested at concentrations ranging from […] in the presence of fixed concentrations of peptide (2 mM) and ATP (50 μM.
(§1) The inhibitory activity data for a representative group of compounds according to the present invention, obtained both in the in-vitro p45 v-abl kinase assay and in the […] human chronic myeloid leukemia K562 cell growth inhibition assay described above, are set out in the following Table I.

A further test deals with K562 cells. Put plainly: K562 Cell Growth Inhibition Assay. The format is cell-based. The conditions noted are these: human chronic myeloid leukemia K562 cells, 72 h, 10000/well. As to the method: K562 Cell Growth Inhibition Assay
K562 cells, a human myelogenous leukemia cell line, were seeded into a 24 wells tissue culture plate (Falcon 3047) (10000/well) in the presence of increasing concentrations of the compounds. After 72 h, cells were harvested and were counted using a cell counter (Coulter Counter-ZM). The percent of inhibition was evaluated in respect to the untreated control cells.
as §1

Consider `Cc1[nH]c2ccccc2c1C=C1C(=O)Nc2ncccc21` [3-[(2-methyl-3-indolyl)methylene]-7-azaoxindole], for which the IC50 is 40 nM in test [1] and 2610 nM in the test with K562 cells.

Molecule `O=C1Nc2ncccc2C1=Cc1c[nH]c2ncccc12` [3-[(7-azaindol-3-yl)methylene]-7-azaoxindole] gave a concentration for half-maximal inhibition (IC50) with K562 cells of 3890 nM.

For `COc1ccc2[nH]cc(C=C3C(=O)Nc4ncccc43)c2c1` [3-[(5-methoxy-3-indolyl)methylene]-7-azaoxindole], the IC50 worked out at 30 nM in test [1] and 3210 nM in the test on K562 cells.

Turning to `O=C1Nc2ncccc2C1=Cc1cc(O)c2c(c1O)CCCC2` [3-[(1,4-dihydroxy-5,6,7,8-tetrahydronaphth-2-yl)methylene]-7-azaoxindole], the half-maximal inhibitory concentration (IC50) in test [1] came out at 2140 nM; in the test with K562 cells, 2360 nM.
